Like-named read-outs stand apart in the source and are kept apart here.
Experiments:
Test in all cases: In vitro competitive activity-based protein profiling (gel-based, FP-Rh or HT-01 probe)
Assay type in all cases: biochemical
[1] = biological target: T1, ABHD6 (Mus musculus, UniProt Q8R2Y0); conditions: for inhibition at 1 µM: 1 μM inhibitor, read-out: % Inhibition at 1 μM, C = ABHD6; for inhibition at 10 µM: 10 μM inhibitor, read-out: % Inhibition at 10 μM, C = ABHD6; for IC50: mouse brain membrane fraction or cell lysates, 30 min preincubation at 37° C., read-out: Mouse (IC50 value, nM) ABHD6
T1 construct: Proteomes (mouse brain membrane fraction or cell lysates); from tissue; host or cells: mouse brain membrane fraction (or cell lysates, not specified)
T1 sequence (Q8R2Y0 1-336): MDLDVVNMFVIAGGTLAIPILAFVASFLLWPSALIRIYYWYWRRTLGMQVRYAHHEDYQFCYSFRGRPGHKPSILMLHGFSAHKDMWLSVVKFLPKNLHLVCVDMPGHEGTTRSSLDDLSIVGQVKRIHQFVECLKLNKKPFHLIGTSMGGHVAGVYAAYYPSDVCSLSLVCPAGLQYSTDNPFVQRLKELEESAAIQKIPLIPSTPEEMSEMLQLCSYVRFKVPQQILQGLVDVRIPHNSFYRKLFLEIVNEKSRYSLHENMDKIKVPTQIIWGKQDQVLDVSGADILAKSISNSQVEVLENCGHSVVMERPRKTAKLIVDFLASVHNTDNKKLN
Outline: (§1)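 Steps: inhibitor dilutions + proteome (1.0 mg/mL), 30 min, 37° C; add FP-Rh or HT-01 (50 μM DMSO stock), 30 min, 37° C; quench in SDS buffer; SDS-PAGE; gel imaging; band densitometry.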

[2] = biological target: T2, FAAH (Mus musculus, UniProt O08914); conditions: for inhibition at 1 µM: 1 μM inhibitor, read-out: % Inhibition at 1 μM, B = FAAH; for inhibition at 10 µM: 10 μM inhibitor, read-out: % Inhibition at 10 μM, B = FAAH; for IC50: mouse brain membrane fraction or cell lysates, 30 min preincubation at 37° C., read-out: Mouse (IC50 value, nM) FAAH
T2 construct: Proteomes (mouse brain membrane fraction or cell lysates); from tissue; host or cells: mouse brain membrane fraction (or cell lysates, not specified)
T2 sequence (O08914 1-579): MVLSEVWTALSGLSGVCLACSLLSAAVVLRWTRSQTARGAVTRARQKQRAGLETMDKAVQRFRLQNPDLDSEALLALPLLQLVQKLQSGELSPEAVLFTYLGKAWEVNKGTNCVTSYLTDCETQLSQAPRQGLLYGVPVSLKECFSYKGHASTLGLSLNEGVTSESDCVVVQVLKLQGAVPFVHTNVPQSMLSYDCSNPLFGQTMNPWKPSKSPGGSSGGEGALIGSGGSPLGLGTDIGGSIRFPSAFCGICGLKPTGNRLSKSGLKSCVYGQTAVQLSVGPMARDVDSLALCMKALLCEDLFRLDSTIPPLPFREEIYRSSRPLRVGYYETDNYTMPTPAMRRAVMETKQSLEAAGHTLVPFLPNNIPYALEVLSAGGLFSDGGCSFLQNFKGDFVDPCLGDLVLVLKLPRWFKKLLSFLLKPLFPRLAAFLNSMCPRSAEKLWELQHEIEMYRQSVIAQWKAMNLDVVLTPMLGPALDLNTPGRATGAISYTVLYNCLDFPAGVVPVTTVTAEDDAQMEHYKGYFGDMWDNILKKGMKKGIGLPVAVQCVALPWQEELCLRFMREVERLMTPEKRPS
Outline: as §1

[3] = biological target: T3, MAGL (Mus musculus, UniProt O35678); conditions: for inhibition at 1 µM: 1 μM inhibitor; for inhibition at 10 µM: 10 μM inhibitor; for IC50: mouse brain membrane fraction or cell lysates, 30 min preincubation at 37° C., read-out: Mouse (IC50 value, nM) MAGL
T3 construct: Proteomes (mouse brain membrane fraction or cell lysates); from tissue; host or cells: mouse brain membrane fraction (or cell lysates, not specified)
T3 sequence (O35678 1-303): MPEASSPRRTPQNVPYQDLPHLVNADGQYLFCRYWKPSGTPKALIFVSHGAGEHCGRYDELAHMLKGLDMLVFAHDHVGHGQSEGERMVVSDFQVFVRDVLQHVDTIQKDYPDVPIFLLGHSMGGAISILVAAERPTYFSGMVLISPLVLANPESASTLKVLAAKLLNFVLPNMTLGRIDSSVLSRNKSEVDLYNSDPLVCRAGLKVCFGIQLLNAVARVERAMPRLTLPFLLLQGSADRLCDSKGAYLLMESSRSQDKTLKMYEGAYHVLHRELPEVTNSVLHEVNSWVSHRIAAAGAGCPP
Outline: as §1

[4] = biological target: T4, PLA2G7 (Mus musculus, UniProt Q60963); conditions: for inhibition at 1 µM: 1 μM inhibitor, read-out: % Inhibition at 1 μM, D = PLA2G7; for inhibition at 10 µM: 10 μM inhibitor, read-out: % Inhibition at 10 μM, D = PLA2G7
T4 construct: Proteomes (mouse brain membrane fraction or cell lysates); from tissue; host or cells: mouse brain membrane fraction (or cell lysates, not specified)
T4 sequence (Q60963 22-440): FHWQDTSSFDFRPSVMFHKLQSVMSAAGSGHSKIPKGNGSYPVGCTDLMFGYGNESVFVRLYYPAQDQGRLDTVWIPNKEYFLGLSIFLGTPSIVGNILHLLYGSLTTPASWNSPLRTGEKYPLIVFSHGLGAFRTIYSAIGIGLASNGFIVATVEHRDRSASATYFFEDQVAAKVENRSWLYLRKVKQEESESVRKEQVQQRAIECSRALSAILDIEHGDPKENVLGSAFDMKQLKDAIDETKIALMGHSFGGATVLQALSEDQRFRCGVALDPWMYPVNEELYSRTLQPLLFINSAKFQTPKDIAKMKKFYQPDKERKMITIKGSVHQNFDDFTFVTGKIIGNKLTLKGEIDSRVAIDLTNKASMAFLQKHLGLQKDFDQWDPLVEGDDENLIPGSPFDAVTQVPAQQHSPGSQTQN
Outline: as §1

Row | inhibition at 1 µM [1] [%] | inhibition at 10 µM [1] [%] | inhibition at 1 µM [2] [%] | inhibition at 10 µM [2] [%] | inhibition at 1 µM [3] [%] | inhibition at 10 µM [3] [%] | inhibition at 1 µM [4] [%] | inhibition at 10 µM [4] [%] | inhibition at 1 µM ([1]; gel-based competitive ABPP) [%] | inhibition at 1 µM ([2]; gel-based competitive ABPP) [%] | inhibition at 1 µM ([3]; gel-based competitive ABPP) [%] | inhibition at 1 µM ([4]; gel-based competitive ABPP) [%] | IC50 [1] [nM] | IC50 [2] [nM] | IC50 [3] [nM] | SMILES | IC50 ([4]; mouse brain membrane fraction or cell lysates, 30 min preincubation at 37° C.) [nM]
1 | < 25 | 25 to 75 | < 25 | < 25 | < 25 | < 25 | < 25 | < 25 | – | – | – | – | – | – | – | Cc1cnn(C(=O)N2CCN(C)CC2)c1 [Example 163, (4-Methyl-1H-pyrazol-1-yl)(4-methylpiperazin-1-yl)methanone] | –
2 | < 25 | > 75 | < 25 | > 75 | < 25 | < 25 | < 25 | > 75 | – | – | – | – | – | – | – | O=C(c1cnn(C(=O)N2CCN(Cc3ccncc3)CC2)c1)N1CCC1 [Example 87, Azetidin-1-yl(1-(4-(pyridin-4-ylmethyl)piperazine-1-carbonyl)-1H-pyrazol-4-yl)methanone] | –
3 | – | – | – | – | – | – | – | – | < 25 | < 25 | < 25 | < 25 | – | – | – | CCN(Cc1cccc(OC)c1)C(=O)n1cc(C)cn1 [Example 251, N-Ethyl-N-(3-methoxybenzyl)-4-methyl-1H-pyrazole-1-carboxamide] | –
4 | > 75 | > 75 | > 75 | > 75 | > 75 | > 75 | < 25 | > 75 | – | – | – | – | 100 to 1000 | 100 to 1000 | < 100 | O=C(N1CCN(Cc2ccc(N3CCCC3)cc2)CC1)n1cc(Cl)cn1 [Example 212, (4-Chloro-1H-pyrazol-1-yl)(4-(4-(pyrrolidin-1-yl)benzyl)piperazin-1-yl)methanone] | –
5 | – | < 25 | – | < 25 | – | < 25 | – | < 25 | – | – | – | – | – | – | – | O=C(NCCCCc1ccccc1)n1cccn1 [Example 34, N-(4-Phenylbutyl)-1H-pyrazole-1-carboxamide] | –
6 | > 75 | > 75 | > 75 | > 75 | > 75 | > 75 | > 75 | > 75 | – | – | – | – | – | – | – | CC(C)(C)OC(=O)N1CCCN(C(=O)n2cc(C#N)cn2)CC1 [Example 27, tert-Butyl 4-(4-cyano-1H-pyrazole-1-carbonyl)-1,4-diazepane-1-carboxylate] | –
7 | > 75 | > 75 | > 75 | > 75 | > 75 | > 75 | > 75 | > 75 | – | – | – | – | < 100 | 100 to 1000 | < 100 | N#Cc1cnn(C(=O)N2CCN(Cc3ccccc3)CC2)c1 [Example 9, 1-(4-Benzylpiperazine-1-carbonyl)-1H-pyrazole-4-carbonitrile] | –
8 | > 75 | > 75 | > 75 | > 75 | > 75 | > 75 | < 25 | > 75 | – | – | – | – | – | – | – | O=C(N1CCN(Cc2ccc(-c3ccccc3)cc2OCc2ccccc2)CC1)n1cc(C(F)(F)F)cn1 [Example 147, (4-((3-(Benzyloxy)biphenyl-4-yl)methyl)piperazin-1-yl)(4-(trifluoromethyl)-1H-pyrazol-1-yl)methanone] | –

Row | SMILES | inhibition at 1 µM [1] [%] | inhibition at 10 µM [1] [%] | inhibition at 1 µM [2] [%] | inhibition at 10 µM [2] [%] | inhibition at 1 µM [3] [%] | inhibition at 10 µM [3] [%] | inhibition at 1 µM [4] [%] | inhibition at 10 µM [4] [%] | inhibition at 1 µM ([1]; gel-based competitive ABPP) [%] | inhibition at 1 µM ([2]; gel-based competitive ABPP) [%] | inhibition at 1 µM ([3]; gel-based competitive ABPP) [%] | inhibition at 1 µM ([4]; gel-based competitive ABPP) [%] | IC50 [1] [nM] | IC50 [2] [nM] | IC50 [3] [nM] | IC50 ([4]; mouse brain membrane fraction or cell lysates, 30 min preincubation at 37° C.) [nM]
9 | COc1ccccc1N1CCN(C(=O)n2cc(C(F)(F)F)cn2)CC1 [Example 233, (4-(2-Methoxyphenyl)piperazin-1-yl)(4-(trifluoromethyl)-1H-pyrazol-1-yl)methanone] | > 75 | > 75 | > 75 | > 75 | > 75 | > 75 | > 75 | > 75 | – | – | – | – | < 100 | < 100 | < 100 | < 100
